The subject of one test is C. albicans NCPF3281. Kind of test: Candida panel MIC, serial dilution in 96-well plates. The format is cell-based, Candida albicans. The following applies: NCPF3281, read-out: MIC C. albicans NCPF3281. A digest of the protocol: (§1)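 Overnight starter cultures were diluted to OD600 0.01 and added to serially diluted compound (128 to 0.25 μg/mL) in MOPS-buffered RPMI with 2% glucose, pH 7.0, giving 0.5-5×10^5 cells/mL. After 24 h at 37 °C, OD530 was measured and the ≥50% inhibition endpoint taken as MIC.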

The test system of another test is C. glabrata NCPF8018. Described as above. The note with it: Nakaseomyces glabratus, NCPF8018; Table 4, common panel; 24 hours, ≥50% inhibition; read-out: MIC C. glabrata NCPF8018. The format is cell-based, Candida glabrata. In short, it runs like this:
(§2)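 MIC taken as lowest concentration inhibiting growth ≥50% relative to drug-free control, from OD530 after 24 hours at 37° C. Fungi at 0.5-5×10^5/mL were exposed to serially diluted compound in RPMI 1640/MOPS/2% glucose medium adjusted to pH 7.0.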

Another test deals with C. krusei NCPF3876. The test is described as follows: microbe, parasite or virus in culture. The format is cell-based, Candida krusei. The following applies: Pichia kudriavzevii, NCPF3876; Table 4, common panel; 24 hours, ≥50% inhibition; read-out: MIC C. krusei NCPF3876. In short, it runs like this: as §2
Another test deals with C. parapsilosis NCPF3209. The test is described as follows: microbe, parasite or virus in culture. The format is cell-based, Candida parapsilosis. The following applies: Lodderomyces parapsilosis, NCPF3209; Table 4, common panel; 24 hours, ≥50% inhibition; read-out: MIC C. parapsilosis NCPF3209. In short, it runs like this: as §2
The next test concerns Candida auris TDG2211. Kind of test: microbe, parasite or virus in culture. The format is cell-based. The following applies: Candidozyma auris, TDG2211; Table 4, extended panel; 24 hours, ≥50% inhibition; read-out: MIC Candida auris TDG2211. A digest of the protocol: (§3)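 MIC = lowest concentration inhibiting growth ≥50% relative to drug-free control, read by OD530 nm after 24 h at 37° C. Medium: RPMI 1640/MOPS/2% glucose, pH 7.0. Inoculum 0.5-5×10^5/mL.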

Another test has as its system Candida auris TDG2506. The test is described as follows: microbe, parasite or virus in culture. The format is cell-based. The following applies: Candidozyma auris, TDG2506; Table 4, extended panel; 24 hours, ≥50% inhibition; read-out: MIC Candida auris TDG2506. In short, it runs like this:
as §3

In another test the test system is C. auris TDG1912. The test is described as follows: Candida panel MIC, serial dilution in 96-well plates. The format is cell-based. The following applies: Candidozyma auris, TDG1912; Table 4; 24 hours, ≥50% inhibition; read-out: MIC C. auris TDG1912. In short, it runs like this: as §1
The next test concerns C. tropicalis NCPF8760. The test is described as above. The format is cell-based. The following applies: NCPF8760, Table 4, common panel, 24 hours, ≥50% inhibition, read-out: MIC C. tropicalis NCPF8760. In short, it runs like this: as §1
A further test has as its system Candida auris TDG1102. Described as above. The following applies: Candidozyma auris, TDG1102, 24 h, read-out: MIC Candida auris TDG1102. The format is cell-based. A digest of the protocol:
as §1

The test system of another test is Candida auris TDG2512. The description is as above. The format is cell-based. The note with it: Candidozyma auris, TDG2512; Table 4, extended panel; 24 hours, ≥50% inhibition; read-out: MIC Candida auris TDG2512. In short, it runs like this: as §1
A further test has as its system C. albicans 3363. Kind of test: Candida albicans panel MIC. The format is cell-based. The following applies: Table 6, Candida albicans panel. How it is done:
(§4) The minimum inhibitory concentration of test compounds were determined in a panel of Candida species (see Table 4 below), using the a serial dilution method in 96-well plates using the following protocol.
(§5) Starter cultures of fungal strains to be tested were grown in 3 mL of RPMI 2% glucose media incubated at 37° C. with shaking at 200 rpm overnight. The culture media used was 900 mL H2O; 10.4 g RPMI 1640 (with L-glutamine and a pH indicator but without bicarbonate); 34.5 g MOPS and 18 g glucose. The pH of the media was adjusted to 7.0 with 1 M sodium hydroxide.
(§6) Solutions of the compound to be tested were prepared by dissolving the compound in DMSO and subsequently into media to the desired concentrations. 200 μL of compound solution was then added to the wells of the 96-well plate using a serial dilution method row-by row of the plate to give a compound concentration gradient across the plate of from 128 μg/mL to 0.25 μg/mL. The last two rows of each plate were control rows containing the culture media alone and the media plus fungi.
(§7) The fungi starter cultures were diluted 1:10 in water in cuvettes. This was then further diluted to an optical density (OD600) of 0.01 in media. 100 μL of the fungi was added to each well giving a starting concentration of fungus of 0.5-5×10^5/mL. One species of fungus was used on each plate. The plates were then held at 37° C. for 24 hours.
(§8) A plate reader was used to measure growth in each well at OD530 nm and the MIC was determined for each test compound. The MIC is defined as the lowest concentration giving rise to inhibition of ≥50% of that of the drug-free control well containing the fungus and media.
(§9) The compounds shown in Table 6 were tested against a further panel of Candida albicans.

A further test has as its system C. albicans 3645. Kind of test: Candida albicans panel MIC. The format is cell-based. The note with it: Table 6, Candida albicans panel. As for the experimental part: as §4, §5, §6, §7, §8, §9
The subject of the next test is C. albicans 3880. Kind of test: Candida albicans panel MIC. The following applies: Table 6, Candida albicans panel. The format is cell-based. How it is done:
as §4, §5, §6, §7, §8, §9

A further test concerns C. albicans 3881. Kind of test: Candida albicans panel MIC. The format is cell-based. The note with it: Table 6, Candida albicans panel. As for the experimental part: as §4, §5, §6, §7, §8, §9
The test system of another test is C. albicans 3882. Kind of test: Candida albicans panel MIC. The format is cell-based. The note with it: Table 6, Candida albicans panel. How it is done: as §4, §5, §6, §7, §8, §9
In the next test the test system is C. albicans 3990. Kind of test: Candida albicans panel MIC. The format is cell-based. The note with it: Table 6, Candida albicans panel. How it is done:
as §4, §5, §6, §7, §8, §9

A further test has as its system C. albicans 8112. The test is described as follows: Candida albicans panel MIC. The format is cell-based. The note with it: Table 6, Candida albicans panel. As for the experimental part: as §4, §5, §6, §7, §8, §9
The test system of a further test is panel of Candida species. The test is described as follows: Candida panel MIC, statements on the whole panel. The format is cell-based. The following applies: in words. As for the experimental part: as §4, §5, §6, §7, §8
A further test deals with Aspergillus strains. Kind of test: Aspergillus panel MIC, statement on the whole panel. The following applies: Table 8, in words. The format is cell-based. How it is done:
The compound of Example 2 (which corresponds to compound number 2) was tested against a panel of Aspergillus strains using a method analogous to that described above for the Candida Panel.

The structures appear in SMILES notation. Converted amounts (≈) assume the structure as drawn. Where two headings read alike, the source gives them in different places. Where only a bound is given, the exact number is not on record here.

Regarding `N#Cc1ccc(-c2ccc(NC3CCN(CC(O)(Cn4cncn4)c4ccc(F)cc4F)CC3)cc2)cc1` (centres unmarked) [Example 2, 4′-((1-(2-(2,4-difluorophenyl)-2-hydroxy-3-(1H-1,2,4-triazol-1-yl)propyl)piperidin-4-yl)amino)-[1,1′-biphenyl]-4-carbonitrile], the MIC is at most 0.0039 µg/mL in the test on C. albicans NCPF3281 (Candida albicans, Table 4, common panel, 24 hours, ≥50% inhibition); at most 0.0039 µg/mL in the test on C. albicans NCPF3281 (Table 6, Candida albicans panel); 0.125 µg/mL (≈ 0.243 µM) in the test on C. glabrata NCPF8018; 0.003 to 0.125 µg/mL (≈ 0.00583 to 0.243 µM) with C. krusei NCPF3876; at most 0.003 µg/mL with C. parapsilosis NCPF3209; 0.25 µg/mL (≈ 0.486 µM) with Candida auris TDG2211. Further, the MIC was 0.003 to 0.15 µg/mL (≈ 0.00583 to 0.291 µM) with Candida auris TDG2506; 0.03 µg/mL (≈ 0.0583 µM) in the test with C. auris TDG1912; 0.003 to 0.25 µg/mL (≈ 0.00583 to 0.486 µM) with C. tropicalis NCPF8760; 0.003 to 0.5 µg/mL (≈ 0.00583 to 0.972 µM) in the test with Candida auris TDG1102; at most 0.003 µg/mL in the test on Candida auris TDG2512; 0.00781 to 0.125 µg/mL (≈ 0.0152 to 0.243 µM) with C. albicans 3363. The MIC against C. albicans 3645 is 0.00391 µg/mL (≈ 0.0076 µM); against C. albicans 3880 it was 0.00781 µg/mL (≈ 0.0152 µM); with C. albicans 3881 it was 0.0156 µg/mL (≈ 0.0303 µM); in the test on C. albicans 3882 it was 0.0313 µg/mL (≈ 0.0608 µM); against C. albicans 3990 it was 0.0156 µg/mL (≈ 0.0303 µM); against C. albicans 8112, 0.00195 to 0.00781 µg/mL (≈ 0.00379 to 0.0152 µM). Further, the “Activity against Candida auris including resistant strains” value with panel of Candida species is recorded as “highly active”. For the same compound, the “Effectiveness against the Aspergillus strains tested compared to fluconazole” value with Aspergillus strains was “highly effective”.

For the origin of these results see patent US20240246920A1, “TRIAZOLE DERIVATIVES WITH ANTIFUNGAL ACTIVITY” (King's College London, priority 2020, published 2024).
